PubChem BioAssay AID2060887 (Molecular Pharmacology Branch, DTP, NCI, 2025)
Blank lines part the entries; values can stand above or below the compound they belong to.

Test system: 782815-120-R-J1-PDC complex spheroid viability
Experiment: Anticancer human tumor 782815-120-R-J1-PDC patient-derived colon adenocarcinoma cell line growth inhibition [RAS]
Details: for IC50: curve of first compound; for viability, T/C: stronger effect = lower value
Text: RAS pathway inhibitors in Combinations in Complex Spheroids
A high-throughput screen of multi-cell type tumor spheroids was designed to identify active combinations of RAS pathway inhibitors and targeted small molecules. Complex spheroids include a stromal component modeled by human endothelial cells (HUVEC) and fibroblasts modeled by human mesenchymal stem cells (MSCs). The concentration ranges selected for each drug and investigational agent were based upon clinically achievable concentrations if the clinical Cmax of the agent was known.
Compounds. The drugs and investigational agents: abemaciclib (NSC768073), cobimetinib (NSC768068), divarasib (GDC6063, NSC841802), docetaxel (NSC628503), GDC-1971 (RLY-1971, NSC841576), gemcitabine (NSC613327), inavolisib (NSC800729), ipatasertib (NSC767898), KB-0742 (NSC834161), MRTX-1133 (NSC836407), osimertinib (NSC779217), RMC-4630 (NSC839698), RMC-6236 (NSC851965), RMC-6291 (NSC852671), Ro-3306 (NSC812927), sapanisertib (NSC764658), SN-38 (NSC673596), staurosporine (NSC755774), SY5609 (NSC837396), and tovorafenib (DAY101, NSC766906), were obtained from the National Cancer Institute (NCI) Developmental Therapeutics Program Chemical Repository. The FDA-approved anticancer drug set is available from the NCI Developmental Therapeutics Program. […] The stock solutions were prepared in dimethyl sulfoxide (DMSO, Sigma-Aldrich, St. Louis, MO, cat. D2650) at 800-fold the tested concentration and stored at -70 degrees C prior to their use. All drugs and investigational agents were tested over a range starting from a high concentration at or near the clinical Cmax and decreasing in half-log increments. If the clinical Cmax for an agent had not been determined, the highest concentration tested was 10 microM.
Cell Culture. All cells were maintained in an incubator at 37 degrees C and 5% CO2 with 95% humidity. The PDC lines were cultured according to standard operating procedures established by the NCI PDMR. All PDCs were thawed and cultured in Matrigel-coated flasks prepared with a working solution of 1X Ham's F-12 nutrient mix, without supplementation (Invitrogen, Waltham, MA, cat. 11765054), 100 U/mL penicillin-streptomycin (Invitrogen, cat. 15140122), and 2.5% Matrigel (Corning Inc., Corning, NY, cat. 354248) for the first three passages. The 362531-283-R-J2-PDC and 782815-120-R-J1-PDC lines were cultured in 6C/Colon 1B media, which includes advanced DMEM/F-12 (Thermo Fisher Scientific, cat. 12634028), 10 mM HEPES (Thermo Fisher Scientific, cat. 15630080), 1X GlutaMAX supplement (Thermo Fisher Scientific, cat. 35050061), 0.1 mg/mL primocin (InvivoGen, San Diego, CA, cat. ant-pm-2), 10% defined fetal bovine serum, heat inactivated (HyClone Laboratories Inc., Logan, UT, cat. SH30070.03HI), 50% L-WRN conditioned media (ATCC, cat. CRL-3276), 1.25 mM N-Acetyl-L-cysteine (Sigma-Aldrich, cat. A9165), 10 mM nicotinamide (Sigma-Aldrich, cat. N0636), 1X B-27 supplement (Thermo Fisher Scientific, cat. 17504044), 1X N-2 supplement (Thermo Fisher Scientific, cat. 17502048), 50 ng/mL human EGF (Thermo Fisher Scientific, cat. PHG0311), and 10 microM Y-27632 dihydrochloride (Tocris Bioscience, cat. 1254). The K12877-001-R-J1-PDC line was cultured in 6I media, which includes all 6C/Colon 1B media plus 10 ng/mL human FGF-10 (PeproTech, cat. 100-26), 1 ng/mL human FGF-2 (PeproTech, cat. 100-18B), 1 µM prostaglandin E2 (Tocris Bioscience, cat. 2296), […] hydrocortisone (Sigma-Aldrich, cat. H4001), and […] bovine insulin (Sigma-Aldrich, cat. I6634). The K86415-001-R-J1-PDC line was cultured in 6D media, which includes all 6C/Colon 1B media components minus the L-WRN conditioned media. The 485176-168-R4-J1-PDC was cultured in PANC media, which includes all 6C/Colon 1B media plus 100 ng/mL human FGF-10 (PeproTech, cat. 100-26), 500 nM SB-431542 (Selleckchem, cat. S1067), and 10 nM gastrin (Tocris Bioscience, cat. 3006). […]
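Further: spheroids exposed to compounds for 7 days before reading.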
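Wherever viability, T/C is given: 100% = DMSO vehicle control viability.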

- IC50 (second compound 0.00316 µM): > 1000 nM
- IC50 (second compound 0.01 µM): > 1000 nM
- IC50 (second compound 0.0316 µM): > 1000 nM
- IC50 (second compound 0.1 µM): > 1000 nM
- IC50 (second compound 0.316 µM): > 1000 nM
- IC50 (second compound 1 µM): > 1000 nM
Compound: C=CC(=O)Nc1cc(Nc2nccc(-c3cn(C)c4ccccc34)n2)c(OC)cc1N(C)CCN(C)C + C=CC(=O)N1CCN(c2nc(OCC3CCCN3C)nc3c(F)c(-c4nc(N)cc(C)c4C(F)(F)F)c(Cl)cc23)C(C)C1
- viability, T/C (second compound 0.00316 µM, first compound 0.00316 µM): 92.7%
- viability, T/C (second compound 0.00316 µM, first compound 0.01 µM): 98.3%
- viability, T/C (second compound 0.00316 µM, first compound 0.0316 µM): 101%
- viability, T/C (second compound 0.00316 µM, first compound 0.1 µM): 95%
- viability, T/C (second compound 0.00316 µM, first compound 0.316 µM): 92.9%
- viability, T/C (second compound 0.00316 µM, first compound 1 µM): 99.8%
- viability, T/C (second compound 0.01 µM, first compound 0.00316 µM): 91.9%
- viability, T/C (second compound 0.01 µM, first compound 0.01 µM): 92%
- viability, T/C (second compound 0.01 µM, first compound 0.0316 µM): 91.8%
- viability, T/C (second compound 0.01 µM, first compound 0.1 µM): 91.6%
- viability, T/C (second compound 0.01 µM, first compound 0.316 µM): 93.8%
- viability, T/C (second compound 0.01 µM, first compound 1 µM): 91%
- viability, T/C (second compound 0.0316 µM, first compound 0.00316 µM): 98.3%
- viability, T/C (second compound 0.0316 µM, first compound 0.01 µM): 101%
- viability, T/C (second compound 0.0316 µM, first compound 0.0316 µM): 98.1%
- viability, T/C (second compound 0.0316 µM, first compound 0.1 µM): 92.1%
- viability, T/C (second compound 0.0316 µM, first compound 0.316 µM): 92.9%
- viability, T/C (second compound 0.0316 µM, first compound 1 µM): 88.5%
- viability, T/C (second compound 0.1 µM, first compound 0.00316 µM): 100%
- viability, T/C (second compound 0.1 µM, first compound 0.01 µM): 88.6%
- viability, T/C (second compound 0.1 µM, first compound 0.0316 µM): 96%
- viability, T/C (second compound 0.1 µM, first compound 0.1 µM): 92.9%
- viability, T/C (second compound 0.1 µM, first compound 0.316 µM): 109%
- viability, T/C (second compound 0.1 µM, first compound 1 µM): 90.7%
- viability, T/C (second compound 0.316 µM, first compound 0.00316 µM): 101%
- viability, T/C (second compound 0.316 µM, first compound 0.01 µM): 95.1%
- viability, T/C (second compound 0.316 µM, first compound 0.0316 µM): 92.3%
- viability, T/C (second compound 0.316 µM, first compound 0.1 µM): 95.6%
- viability, T/C (second compound 0.316 µM, first compound 0.316 µM): 93.9%
- viability, T/C (second compound 0.316 µM, first compound 1 µM): 91.6%
- viability, T/C (second compound 1 µM, first compound 0.00316 µM): 96.6%
- viability, T/C (second compound 1 µM, first compound 0.01 µM): 90.1%
- viability, T/C (second compound 1 µM, first compound 0.0316 µM): 90.3%
- viability, T/C (second compound 1 µM, first compound 0.1 µM): 96%
- viability, T/C (second compound 1 µM, first compound 0.316 µM): 93.4%
- viability, T/C (second compound 1 µM, first compound 1 µM): 91.7%

- IC50 (second compound 0.000949 µM): 14.6 nM
- IC50 (second compound 0.003 µM): 2.4 nM
- IC50 (second compound 0.00949 µM): < 0.949 nM
- IC50 (second compound 0.03 µM): < 0.949 nM
- IC50 (second compound 0.0949 µM): < 0.949 nM
- IC50 (second compound 0.3 µM): < 0.949 nM
Compound: CC1(C)CCC(Nc2ncc(C(F)(F)F)c(-c3c[nH]c4c(P(C)(C)=O)c(C#N)ccc34)n2)CN1 (centres undefined) + CCn1c(-c2cc(N3CCN(C)CC3)cnc2C(C)OC)c2c3cc(ccc31)-c1csc(n1)CC(NC(=O)C1CC1C)C(=O)N1CCCC(N1)C(=O)OCC(C)(C)C2
- viability, T/C (second compound 0.000949 µM, first compound 0.000949 µM): 65.1%
- viability, T/C (second compound 0.000949 µM, first compound 0.003 µM): 61.3%
- viability, T/C (second compound 0.000949 µM, first compound 0.00949 µM): 54.6%
- viability, T/C (second compound 0.000949 µM, first compound 0.03 µM): 43%
- viability, T/C (second compound 0.000949 µM, first compound 0.0949 µM): 36.9%
- viability, T/C (second compound 0.000949 µM, first compound 0.3 µM): 39.2%
- viability, T/C (second compound 0.003 µM, first compound 0.000949 µM): 52.9%
- viability, T/C (second compound 0.003 µM, first compound 0.003 µM): 54%
- viability, T/C (second compound 0.003 µM, first compound 0.00949 µM): 44.6%
- viability, T/C (second compound 0.003 µM, first compound 0.03 µM): 31.3%
- viability, T/C (second compound 0.003 µM, first compound 0.0949 µM): 34.4%
- viability, T/C (second compound 0.003 µM, first compound 0.3 µM): 34.2%
- viability, T/C (second compound 0.00949 µM, first compound 0.000949 µM): 30.3%
- viability, T/C (second compound 0.00949 µM, first compound 0.003 µM): 30.4%
- viability, T/C (second compound 0.00949 µM, first compound 0.00949 µM): 25.7%
- viability, T/C (second compound 0.00949 µM, first compound 0.03 µM): 22.8%
- viability, T/C (second compound 0.00949 µM, first compound 0.0949 µM): 19.2%
- viability, T/C (second compound 0.00949 µM, first compound 0.3 µM): 23.6%
- viability, T/C (second compound 0.03 µM, first compound 0.000949 µM): 18.7%
- viability, T/C (second compound 0.03 µM, first compound 0.003 µM): 18.3%
- viability, T/C (second compound 0.03 µM, first compound 0.00949 µM): 15.3%
- viability, T/C (second compound 0.03 µM, first compound 0.03 µM): 14%
- viability, T/C (second compound 0.03 µM, first compound 0.0949 µM): 13%
- viability, T/C (second compound 0.03 µM, first compound 0.3 µM): 13.6%
- viability, T/C (second compound 0.0949 µM, first compound 0.000949 µM): 15.6%
- viability, T/C (second compound 0.0949 µM, first compound 0.003 µM): 15.6%
- viability, T/C (second compound 0.0949 µM, first compound 0.00949 µM): 9.83%
- viability, T/C (second compound 0.0949 µM, first compound 0.03 µM): 10.4%
- viability, T/C (second compound 0.0949 µM, first compound 0.0949 µM): 10.7%
- viability, T/C (second compound 0.0949 µM, first compound 0.3 µM): 8.29%
- viability, T/C (second compound 0.3 µM, first compound 0.000949 µM): 16.3%
- viability, T/C (second compound 0.3 µM, first compound 0.003 µM): 13.9%
- viability, T/C (second compound 0.3 µM, first compound 0.00949 µM): 12.5%
- viability, T/C (second compound 0.3 µM, first compound 0.03 µM): 9.35%
- viability, T/C (second compound 0.3 µM, first compound 0.0949 µM): 7.69%
- viability, T/C (second compound 0.3 µM, first compound 0.3 µM): 7.08%
